Experiment: UV-Vis titrations for solubility
Format: physicochemical
Experimental: The study of UV-vis properties of pyridine-based polyheteroaromatic compounds detailed in this study enable the determination of their solubility in various conditions (DMSO, H2O and cacodylate buffers (10 mM sodium cacodylate+100 mM NaCl (for Caco.Na) or KCl (for Caco.K)): the simplest method for this is to measure the absorption spectra of compound 3 at various concentrations (from 0 to 32 μM); solubility of compound 3 is thus evaluated through the reporting of its absorbance at a given wavelength (herein 338 nm (A338)) as a function of the concentration of compound 3 and applying the Beer-Lambert law.

## c1cc(-c2cnc(-c3cccc(-c4cnco4)n3)o2)nc(-c2cnc(-c3cccc(-c4cnco4)n3)o2)c1 [compound 3, 2,6-bis{2-[6-(oxazol-5-yl)pyridin-2-yl]oxazol-5-yl}pyridine]
DMSO, H2O and aqueous cacodylate buffers (Na+ or K+-rich), A338, 0 to 32 μM
  solubility: soluble in all the solvent systems used herein
Within the 0 to 32 μM concentration range, all solvent systems
  self-aggregation: does not self-aggregate

From US20110201648A1, “POLY-HETEROARYL DERIVATIVES FOR THE TREATMENT OF CANCER” (INSTITUT CURIE, priority 2008, published 2011)
